Assay results as given in ChEMBL document CHEMBL1201862, “PubChem BioAssay data set” (2004).
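Step 1: Grow cells in 96-well plates. Step 2: Expose to compound for 48 hours at 5 concentrations. Step 3: Interpolate endpoints linearly; if unreached, use highest concentration. At the GI50, growth is halved.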 Active and inactive are the calls of the source. No stated cut-off is given here; in the data, active = GI50 up to about 1.1 µM and inactive = higher.

Assays:
Assay in all cases: inhibition of tumour cell growth, NCI panel, 48 h
SW-620 = system: SW-620
SK-MEL-5 = system: SK-MEL-5
UACC-257 = system: UACC-257
KM12 = system: KM12
SF-539 = system: SF-539
RXF 393 = system: RXF 393
HL-60 = system: HL-60
TK-10 = system: TK-10
OVCAR-3 = system: OVCAR-3
COLO 205 = system: COLO 205
OVCAR-5 = system: OVCAR-5
UO-31 = system: UO-31
U-251 = system: U-251
MCF7 = system: MCF7
MDA-MB-435 = system: MDA-MB-435
UACC-62 = system: UACC-62
A549 = system: A549
SNB-75 = system: SNB-75
RPMI-8226 = system: RPMI-8226
SK-MEL-2 = system: SK-MEL-2

In the case of `Cn1ncc2c(Nc3cccc(Cl)c3)nc(Nc3cccc(Cl)c3)nc21`, the GI50 (SW-620) is reported as 11.2 µM (inactive), the GI50 (SK-MEL-5) is reported as > 35.6 µM (inactive) and the GI50 (UACC-257) is reported as 8.73 µM (inactive). The GI50 (KM12) was 4.9 µM (inactive), the GI50 (SF-539) was 19.9 µM (inactive) and the GI50 (RXF 393) was 3.48 µM (inactive). For the same compound, the GI50 (HL-60) was 7.94 µM (inactive), the GI50 (TK-10) was 11.5 µM (inactive) and the GI50 (OVCAR-3) was 18.5 µM (inactive). For the same compound, the GI50 (COLO 205) was > 24.7 µM (inactive), the GI50 (OVCAR-5) was 16.1 µM (inactive) and the GI50 (UO-31) was 9.73 µM (inactive). For the same compound, the GI50 (U-251) was 8.04 µM (inactive), the GI50 (MCF7) was 4.68 µM (inactive) and the GI50 (MDA-MB-435) was 10.9 µM (inactive). The GI50 (UACC-62) was 13.7 µM (inactive), the GI50 (A549) was 8.11 µM (inactive) and the GI50 (SNB-75) was 7.93 µM (inactive). The GI50 (RPMI-8226) was 3.61 µM (inactive) and the GI50 (SK-MEL-2) was 14.9 µM (inactive).
For `O=C1C(=O)c2c(oc(=O)c3ccccc23)-c2ccccc21`, the GI50 (SW-620) was 22.2 µM (inactive), the GI50 (SK-MEL-5) was 12.6 µM (inactive) and the GI50 (UACC-257) was > 25 µM (inactive). For the same compound, the GI50 (KM12) was > 25 µM (inactive), the GI50 (SF-539) was > 25 µM (inactive) and the GI50 (RXF 393) was > 25 µM (inactive). For the same compound, the GI50 (HL-60) was 8.11 µM (inactive), the GI50 (TK-10) was > 25 µM (inactive) and the GI50 (OVCAR-3) was 7.05 µM (inactive). The GI50 (COLO 205) was > 25 µM (inactive), the GI50 (OVCAR-5) was > 25 µM (inactive) and the GI50 (UO-31) was > 25 µM (inactive). The GI50 (U-251) was > 25 µM (inactive), the GI50 (MCF7) was 10.9 µM (inactive) and the GI50 (MDA-MB-435) was 6.75 µM (inactive). The GI50 (UACC-62) was > 25 µM (inactive), the GI50 (A549) was > 25 µM (inactive) and the GI50 (SNB-75) was 16.6 µM (inactive). The GI50 (RPMI-8226) was 19.3 µM (inactive) and the GI50 (SK-MEL-2) was > 25 µM (inactive).
With `C=C(Br)CN(CC(=C)Br)C(C)=O` the GI50 (SW-620) was > 100 µM (inactive), the GI50 (SK-MEL-5) was > 100 µM (inactive) and the GI50 (UACC-257) was > 100 µM (inactive). For the same compound, the GI50 (KM12) was > 100 µM (inactive), the GI50 (SF-539) was > 100 µM (inactive) and the GI50 (RXF 393) was > 100 µM (inactive). For the same compound, the GI50 (HL-60) was > 100 µM (inactive), the GI50 (TK-10) was > 100 µM (inactive) and the GI50 (OVCAR-3) was > 100 µM (inactive). The GI50 (COLO 205) was > 100 µM (inactive), the GI50 (OVCAR-5) was > 100 µM (inactive) and the GI50 (UO-31) was > 100 µM (inactive). The GI50 (U-251) was > 100 µM (inactive), the GI50 (MCF7) was > 100 µM (inactive) and the GI50 (MDA-MB-435) was > 100 µM (inactive). The GI50 (UACC-62) was > 100 µM (inactive), the GI50 (A549) was > 100 µM (inactive) and the GI50 (SNB-75) was > 100 µM (inactive). The GI50 (RPMI-8226) was > 100 µM (inactive) and the GI50 (SK-MEL-2) was > 100 µM (inactive).
`CC1(C)N=C(N)N=C(N)N1c1ccc(CCCCc2ccc(S(=O)(=O)F)cc2Cl)c(Cl)c1` was tested, and the GI50 (SW-620) was 2.7 µM (inactive), the GI50 (SK-MEL-5) was 1.05 µM (active) and the GI50 (UACC-257) was 5.56 µM (inactive). For the same compound, the GI50 (KM12) was 2.52 µM (inactive), the GI50 (SF-539) was 1.67 µM (inactive) and the GI50 (RXF 393) was 14.2 µM (inactive). The GI50 (HL-60) was 0.366 µM (active), the GI50 (TK-10) was 27.7 µM (inactive) and the GI50 (OVCAR-3) was 5.71 µM (inactive). For the same compound, the GI50 (COLO 205) was 5.85 µM (inactive), the GI50 (OVCAR-5) was 17.2 µM (inactive) and the GI50 (UO-31) was 36.1 µM (inactive). The GI50 (U-251) was 1.02 µM (active), the GI50 (MCF7) was 2.39 µM (inactive) and the GI50 (MDA-MB-435) was 3.95 µM (inactive). For the same compound, the GI50 (UACC-62) was 0.258 µM (active), the GI50 (A549) was 0.706 µM (active) and the GI50 (SNB-75) was 9.23 µM (inactive). For the same compound, the GI50 (RPMI-8226) was 3.05 µM (inactive) and the GI50 (SK-MEL-2) was 8.34 µM (inactive).
For `CN(C)c1ccc(C2SCC(=O)N2c2nc3cc4sc(N5C(=O)CSC5c5ccc(N(C)C)cc5)nc4cc3s2)cc1` (stereo not given), the GI50 (SW-620) was 8.02 µM (inactive), the GI50 (SK-MEL-5) was 32 µM (inactive) and the GI50 (UACC-257) was > 25.5 µM (inactive). For the same compound, the GI50 (KM12) was 39.5 µM (inactive), the GI50 (SF-539) was 51.5 µM (inactive) and the GI50 (RXF 393) was > 100 µM (inactive). The GI50 (HL-60) was 29 µM (inactive), the GI50 (TK-10) was > 100 µM (inactive) and the GI50 (OVCAR-3) was 48.3 µM (inactive). For the same compound, the GI50 (COLO 205) was 3.73 µM (inactive), the GI50 (OVCAR-5) was > 94 µM (inactive) and the GI50 (UO-31) was 23.1 µM (inactive). For the same compound, the GI50 (U-251) was 30.7 µM (inactive), the GI50 (MCF7) was 12 µM (inactive) and the GI50 (MDA-MB-435) was 28 µM (inactive). The GI50 (UACC-62) was > 72.3 µM (inactive), the GI50 (A549) was 7.71 µM (inactive) and the GI50 (SNB-75) was > 90.6 µM (inactive). The GI50 (RPMI-8226) was 19.5 µM (inactive) and the GI50 (SK-MEL-2) was > 100 µM (inactive).
In the case of `CCOC(=O)C(Cl)(NC(=O)c1c(F)c(F)c(F)c(F)c1F)C(F)(F)F` (stereo not given), the GI50 (SW-620) is reported as > 100 µM (inactive), the GI50 (SK-MEL-5) is reported as > 100 µM (inactive) and the GI50 (UACC-257) is reported as > 100 µM (inactive). The GI50 (KM12) was > 100 µM (inactive), the GI50 (SF-539) was > 100 µM (inactive) and the GI50 (RXF 393) was > 100 µM (inactive). For the same compound, the GI50 (HL-60) was 22.1 µM (inactive), the GI50 (TK-10) was > 100 µM (inactive) and the GI50 (OVCAR-3) was > 100 µM (inactive). The GI50 (COLO 205) was > 100 µM (inactive), the GI50 (OVCAR-5) was > 100 µM (inactive) and the GI50 (UO-31) was > 100 µM (inactive). For the same compound, the GI50 (U-251) was > 100 µM (inactive), the GI50 (MCF7) was > 100 µM (inactive) and the GI50 (MDA-MB-435) was > 100 µM (inactive). For the same compound, the GI50 (UACC-62) was > 100 µM (inactive), the GI50 (A549) was > 100 µM (inactive) and the GI50 (SNB-75) was > 100 µM (inactive). The GI50 (RPMI-8226) was > 100 µM (inactive) and the GI50 (SK-MEL-2) was > 100 µM (inactive).
`c1ccc2[nH]c3[nH]c4[nH]c5ccccc5[nH]c4[nH]c3[nH]c2c1` was tested, and the GI50 (SW-620) was > 100 µM (inactive), the GI50 (SK-MEL-5) was > 100 µM (inactive) and the GI50 (UACC-257) was > 100 µM (inactive). The GI50 (KM12) was > 100 µM (inactive), the GI50 (SF-539) was > 100 µM (inactive) and the GI50 (RXF 393) was > 100 µM (inactive). For the same compound, the GI50 (HL-60) was > 100 µM (inactive), the GI50 (TK-10) was > 100 µM (inactive) and the GI50 (OVCAR-3) was > 100 µM (inactive). For the same compound, the GI50 (COLO 205) was > 100 µM (inactive), the GI50 (OVCAR-5) was 44.5 µM (inactive) and the GI50 (UO-31) was > 100 µM (inactive). The GI50 (U-251) was > 100 µM (inactive), the GI50 (MCF7) was > 100 µM (inactive) and the GI50 (MDA-MB-435) was > 100 µM (inactive). For the same compound, the GI50 (UACC-62) was > 100 µM (inactive), the GI50 (A549) was > 100 µM (inactive) and the GI50 (SNB-75) was 21 µM (inactive). For the same compound, the GI50 (RPMI-8226) was > 100 µM (inactive) and the GI50 (SK-MEL-2) was > 100 µM (inactive).
For `CC(C)/C(=N\[N+](C)(C)C)c1ccccc1`, the GI50 (SW-620) was > 100 µM (inactive), the GI50 (SK-MEL-5) was > 100 µM (inactive) and the GI50 (UACC-257) was > 100 µM (inactive). The GI50 (KM12) was > 100 µM (inactive), the GI50 (SF-539) was > 100 µM (inactive) and the GI50 (RXF 393) was > 100 µM (inactive). The GI50 (HL-60) was > 100 µM (inactive), the GI50 (TK-10) was > 100 µM (inactive) and the GI50 (OVCAR-3) was > 100 µM (inactive). The GI50 (COLO 205) was > 100 µM (inactive), the GI50 (OVCAR-5) was > 100 µM (inactive) and the GI50 (UO-31) was > 100 µM (inactive). The GI50 (U-251) was > 100 µM (inactive), the GI50 (MCF7) was > 100 µM (inactive) and the GI50 (MDA-MB-435) was > 100 µM (inactive). For the same compound, the GI50 (UACC-62) was > 100 µM (inactive), the GI50 (A549) was > 100 µM (inactive) and the GI50 (SNB-75) was > 100 µM (inactive). For the same compound, the GI50 (RPMI-8226) was > 100 µM (inactive) and the GI50 (SK-MEL-2) was > 100 µM (inactive).
